The data set concerns GRN mRNA. The data set can be described thus: GRN mRNA qPCR in SK-N-AS cells transfected with ASOs. Type of data set: cell-based, human. The conditions noted are these: SK-N-AS; for hGRN mRNA FC: Table 9, 48 hours post-transfection; for hGRN mRNA FC / 120 nM FC (GRN mRNA): 120 nM; for hGRN mRNA FC / 3.75 nM FC (GRN mRNA) / 7.5 nM FC (GRN mRNA) / 15 nM FC (GRN mRNA) / 30 nM FC (GRN mRNA) / 60 nM FC (GRN mRNA) / 120 nM FC (GRN mRNA): normalized to CO-1589; for 3.75 nM FC (GRN mRNA) / 7.5 nM FC (GRN mRNA) / 15 nM FC (GRN mRNA) / 30 nM FC (GRN mRNA) / 60 nM FC (GRN mRNA) / 120 nM FC (GRN mRNA): Table 10; for 3.75 nM FC (GRN mRNA) / 7.5 nM FC (GRN mRNA) / 15 nM FC (GRN mRNA) / 30 nM FC (GRN mRNA) / 60 nM FC (GRN mRNA) / 120 nM FC (GRN mRNA) / hit identification (GRN mRNA dose escalation): 48 hours; for hit identification (GRN mRNA dose escalation): 3.75 nM to 120 nM. As for the experimental part:
The best ASOs based on increased GRN mRNA fold-change were selected for further characterization in dose titration studies. Briefly, human neuroblastoma SK-N-AS cells were transfected with 20 to 160 nM of ASOs CO-3423, CO-3431, CO-3463, and CO-3503. A steric non-targeting control ASO (sNTC) was used as a control. Cells were collected for mRNA analysis after 48 hours and GRN mRNA quantified by qPCR. Housekeeping genes for normalization were GAPDH and PPIA, and mRNA fold change (FC) was normalized to sNTC.
36 additional ASOs were designed with different modifications and base walking around selected ASOs. The effect of increasing doses of these ASOs was assessed in the human neuroblastoma cell line SK-N-AS following transfection. Relative GRN mRNA levels in SK-N-AS cells after treatment was assessed 48-hours post-transfection, and data from exemplary ASOs is shown in FIGS. 5A and 5B.
Additional chemical modifications, including LNA, modifications were made to CO-3423. SK-N-AS cells were transfected with increasing concentrations of the LNA/PS modified ASOs and GRN mRNA quantified by qPCR. ASOs including different LNA modifications of CO-3423 had similar efficacy (i.e, similar increased GRN mRNA expression). GRN mRNA was normalized to the average fold-change of cells treated with two steric non-targeting control ASOs (CO-3772 and CO-1589 (sNTC1)).
The effect of ASO length on GRN gene expression modulation was also investigated. SK-N-AS cells were transfected with increasing concentrations of the longer ASOs and GRN mRNA quantified by qPCR. Increasing the length of CO-3423 increased the potency of the ASO, as shown in Table 4. mRNA was normalized to the average fold change of cells treated with two steric non-targeting control ASOs (CO-3772 and CO-1589 (sNTC1)).
To determine whether variations in the PO/PS internucleotide bond linkages impacted the ability of CO-3423 and CO-3431 to modulate gene expression, several modified ASOs based on these parent ASOs were prepared. SK-N-AS cells were transfected with increasing concentrations of the mixed PO/PS bond ASOs described in Tables 5 and 6, and GRN mRNA quantified by qPCR.
GRN mRNA fold-change after treatment with mixed PO/PS bond versions of CO-3423 is shown in Table 5. mRNA was normalized to the average fold change of cells treated with steric nontargeting controls (CO-3772, CO-1589 (sNTC1), and CO-1929 (sNTC3)).
GRN mRNA fold-change after treatment with mixed PO/PS bond versions of CO-3431 is shown in Table 6. mRNA was normalized as described above.
To further assess the effect of additional modifications on the ability of CO-3423 parent ASO to modulate GRN gene expression, additional LNA tiling and PO bond modifications were incorporated to CO-3423. SK-N-AS cells were transfected with increasing concentrations of the modified ASOs and GRN mRNA quantified by qPCR. CO-3423 was used for comparison. GRN mRNA was normalized to the average fold-change of cells treated with a steric non-targeting control ASO, CO-1589 (sNTC1).
To further assess the effect of modifications on the ability of CO-3463 parent ASO to modulate GRN gene expression, ASOs based on this ASOS incorporating additional LNA modifications were prepared and compared to […]. SK-N-AS cells were transfected with increasing concentrations of the ASOs and GRN mRNA quantified by qPCR. GRN mRNA was normalized to the average fold-change of cells treated with a steric non-targeting control ASO, CO-1589 (sNTC1).
68 additional ASOs were designed to target intergenic enhancers (eRNA). 48 hours post-transfection, the cells were collected for GRN mRNA analysis using qPCR. CO-1589, a steric nontargeting control ASO, was used as a control. GRN mRNA was normalized to cells treated with CO-1589.
The best hits from these ASOs were tested in a dose escalation study. Cells were incubated for 48 hours. Subsequently, the cells were collected for mRNA quantification via RT-qPCR. […]

Oligonucleotides are written 5' to 3', each unit as a sugar letter and its base; * is a phosphorothioate linkage, no mark a phosphodiester; rarer units and linkages stand in square brackets, end groups in braces. Plain capitals give the bases only. e = 2'-O-(2-methoxyethyl) (MOE); [5mC] = 5-methylcytosine

“CO-4606: ASO designed to target intergenic enhancers (eRNA) (antisense eA*e[5mC]*eG*eT*eG*eA*eA*eG*eA*eG*e[5mC]*e[5mC]*eG*eG*eA*eG*eA*eT*eT*e[5mC])”: the “hGRN mRNA FC” value came to 1.4 FC, the “3.75 nM FC (GRN mRNA)” value was 1.1 FC, the “7.5 nM FC (GRN mRNA)” value amounted to 1.1 FC and the “15 nM FC (GRN mRNA)” value was determined as 1.2 FC. The “30 nM FC (GRN mRNA)” value was 1.3 FC, the “60 nM FC (GRN mRNA)” value turned out to be 1.4 FC and the “120 nM FC (GRN mRNA)” value stood at 1.7 FC.

As for “CO-4607: ASO designed to target intergenic enhancers (eRNA) (antisense eA*eA*eG*eA*eA*eA*eT*eA*eG*eA*eT*eT*eA*e[5mC]*e[5mC]*e[5mC]*e[5mC]*eG*eT*eT)”, the “hGRN mRNA FC” value is given as 1.1 FC.

On to “CO-4608: ASO designed to target intergenic enhancers (eRNA) (antisense eT*eA*eG*eA*e[5mC]*eA*e[5mC]*eT*eT*e[5mC]*e[5mC]*eA*eG*e[5mC]*e[5mC]*e[5mC]*eA*e[5mC]*e[5mC]*eT)”, for which the “hGRN mRNA FC” value amounted to 1.1 FC.

As to “CO-4609: ASO designed to target intergenic enhancers (eRNA) (antisense e[5mC]*e[5mC]*eA*eA*eT*eA*eA*eA*eG*e[5mC]*e[5mC]*eT*eT*eG*eG*eG*eT*eG*e[5mC]*e[5mC])”, the “hGRN mRNA FC” value was found to be 1.2 FC.

As for “CO-4610: ASO designed to target intergenic enhancers (eRNA) (antisense eG*eG*eA*e[5mC]*eA*eT*eG*e[5mC]*eT*eG*eG*eA*eA*eA*eG*eT*e[5mC]*eT*eT*eA)”, the “hGRN mRNA FC” value was determined as 1.2 FC.

Consider “CO-4611: ASO designed to target intergenic enhancers (eRNA) (antisense eT*eA*eT*eT*eA*eA*eT*e[5mC]*e[5mC]*eA*e[5mC]*eG*e[5mC]*eT*eG*eT*e[5mC]*e[5mC]*e[5mC]*eA)”, for which the “hit identification (GRN mRNA dose escalation)” value (“hit identification” for short) is given as “initial hits”, the “hGRN mRNA FC” value came out at 1.4 FC, the “3.75 nM FC (GRN mRNA)” value amounted to 1.1 FC and the “7.5 nM FC (GRN mRNA)” value was found to be 1.1 FC. In addition, the “15 nM FC (GRN mRNA)” value was determined as 1.1 FC, the “30 nM FC (GRN mRNA)” value is listed as 1.1 FC, the “60 nM FC (GRN mRNA)” value was 1.1 FC and the “120 nM FC (GRN mRNA)” value turned out to be 1.3 FC.

On to “CO-4612: ASO designed to target intergenic enhancers (eRNA) (antisense eA*eT*eG*eG*e[5mC]*eT*eA*eA*eA*eA*e[5mC]*eT*eA*e[5mC]*e[5mC]*eT*eT*e[5mC]*e[5mC]*eA)”, for which the “hGRN mRNA FC” value is 1.0 FC.

For “CO-4613: ASO designed to target intergenic enhancers (eRNA) (antisense eA*eT*e[5mC]*eA*eA*eG*eG*eG*eT*eT*eT*eG*eG*e[5mC]*eG*eT*eT*eT*eA*eG)”, the “hit identification” value is “initial hits”, the “hGRN mRNA FC” value was 1.6 FC, the “3.75 nM FC (GRN mRNA)” value is given as 1.0 FC and the “7.5 nM FC (GRN mRNA)” value is 1.1 FC. In addition, the “15 nM FC (GRN mRNA)” value is 1.2 FC, the “30 nM FC (GRN mRNA)” value is 1.1 FC, the “60 nM FC (GRN mRNA)” value is 1.2 FC and the “120 nM FC (GRN mRNA)” value is 1.4 FC.

Regarding “CO-4614: ASO designed to target intergenic enhancers (eRNA) (antisense eT*eG*eA*e[5mC]*eT*eA*eG*eA*eG*eA*eA*eA*e[5mC]*eG*e[5mC]*eT*eT*eA*eG*eA)”, the “hGRN mRNA FC” value is on record as 1.2 FC.

Regarding “CO-4615: ASO designed to target intergenic enhancers (eRNA) (antisense e[5mC]*eA*eT*eT*eT*e[5mC]*eA*e[5mC]*eA*e[5mC]*eT*eT*eG*eT*eA*eT*eG*eA*eG*e[5mC])”, the “hGRN mRNA FC” value came out at 1.0 FC.

In the case of “CO-4616: ASO designed to target intergenic enhancers (eRNA) (antisense eA*eA*eG*eA*eA*eG*eG*e[5mC]*e[5mC]*eA*eA*eG*e[5mC]*eT*eG*eG*eT*eA*e[5mC]*e[5mC])”, the “hGRN mRNA FC” value was found to be 1.2 FC.

Regarding “CO-4617: ASO designed to target intergenic enhancers (eRNA) (antisense eG*eG*eA*eG*eA*eT*eA*eG*eG*eG*eT*e[5mC]*eA*e[5mC]*eG*eT*eA*e[5mC]*eT*eT)”, the “hGRN mRNA FC” value was determined as 1.2 FC.

For the substance “CO-4618: ASO designed to target intergenic enhancers (eRNA) (antisense eA*eT*eA*eG*eG*eT*e[5mC]*eA*eG*eG*eG*eA*eA*eT*eG*e[5mC]*e[5mC]*eG*e[5mC]*e[5mC])”, the “hGRN mRNA FC” value was 1.3 FC.

With “CO-4619: ASO designed to target intergenic enhancers (eRNA) (antisense eT*eG*eA*eT*eA*eT*eA*eG*eA*eG*eA*eT*e[5mC]*eT*eG*e[5mC]*eA*eG*e[5mC]*e[5mC])”, the “hit identification” value is on record as “initial hits”, the “hGRN mRNA FC” value is recorded as 1.3 FC, the “3.75 nM FC (GRN mRNA)” value is given as 1.0 FC and the “7.5 nM FC (GRN mRNA)” value is 1.1 FC. The “15 nM FC (GRN mRNA)” value is 1.3 FC, the “30 nM FC (GRN mRNA)” value is on record as 1.2 FC, the “60 nM FC (GRN mRNA)” value is given as 1.2 FC and the “120 nM FC (GRN mRNA)” value was 1.6 FC.

As for “CO-4620: ASO designed to target intergenic enhancers (eRNA) (antisense eG*eT*e[5mC]*e[5mC]*eA*eG*e[5mC]*eA*e[5mC]*eG*e[5mC]*eT*e[5mC]*eT*e[5mC]*eA*eG*e[5mC]*eA*e[5mC])”, the “hGRN mRNA FC” value was 1.0 FC.

As to “CO-4621: ASO designed to target intergenic enhancers (eRNA) (antisense e[5mC]*eG*e[5mC]*eT*eG*e[5mC]*eT*eG*eT*eT*eT*eG*eG*eA*eA*e[5mC]*eG*eA*eG*eT)”, the “hGRN mRNA FC” value came out at 1.2 FC.

“CO-4622: ASO designed to target intergenic enhancers (eRNA) (antisense eA*e[5mC]*eA*eG*eT*eG*eG*e[5mC]*e[5mC]*eG*e[5mC]*eA*eT*eA*eA*eA*eT*eT*eT*e[5mC])”: the “hit identification” value is on record as “initial hits”, the “hGRN mRNA FC” value was found to be 1.0 FC, the “3.75 nM FC (GRN mRNA)” value is 1.0 FC and the “7.5 nM FC (GRN mRNA)” value was determined as 1.0 FC. Moreover, the “15 nM FC (GRN mRNA)” value is 1.0 FC, the “30 nM FC (GRN mRNA)” value is listed as 1.0 FC, the “60 nM FC (GRN mRNA)” value was determined as 1.1 FC and the “120 nM FC (GRN mRNA)” value was 1.1 FC.

As for “CO-4623: ASO designed to target intergenic enhancers (eRNA) (antisense e[5mC]*e[5mC]*eT*eG*eA*e[5mC]*e[5mC]*eT*eG*e[5mC]*e[5mC]*eA*eT*e[5mC]*eT*eA*eT*e[5mC]*eA*eA)”, the “hGRN mRNA FC” value stood at 1.1 FC.

Consider “CO-4624: ASO designed to target intergenic enhancers (eRNA) (antisense eG*eT*e[5mC]*eA*eG*eA*e[5mC]*eT*eG*eT*e[5mC]*e[5mC]*eT*eA*e[5mC]*eA*e[5mC]*e[5mC]*eT*eT)”, for which the “hGRN mRNA FC” value stood at 1.3 FC.

For the origin of these results see patent publication US20250243488A1, “METHODS OF MODULATING PROGRANULIN EXPRESSION USING ANTISENSE OLIGONUCLEOTIDES TARGETING REGULATORY RNAS” (Camp4 Therapeutics Corporation, priority 2022, published 2025).
